In US4473578A, “β-Lactam antibiotics and their use” (Beecham Group Limited, priority 1979, dated 1984):
In brackets after ≈: the same amount, converted by molar mass.

How the values were obtained:
Experiment in all cases: Antibacterial effectiveness in agar
Assay type in all cases: cell-based
Proteus morganii I = conditions: Morganella morganii; in agar; Proteus morganii I; read-out: M.I.C.
Description: (§1) b. Antibacterial effectiveness of the compound of […]

[1] = system: Pseudomonas aeruginosa NCTC 10662; conditions: NCTC10662; in agar; Pseudomonas aeruginosa NCTC 10662; read-out: M.I.C.
Description: as §1

[2] = system: Staphylococcus aureus T67+; conditions: in agar; Staphylococcus aureus T67+; read-out: M.I.C.
Description: as §1

[3] = system: Serratia marcescens Wo146; conditions: in agar; Serratia marcescens Wo146; read-out: M.I.C.
Description: as §1

Escherichia coli JT414C+ = conditions: in agar; Escherichia coli JT414C+; read-out: M.I.C.
Description: as §1

[4] = system: Staphylococcus aureus ATCC 25923; conditions: ATCC25923; in agar; Staphylococcus aureus ATCC 25923; read-out: M.I.C.
Description: as §1

Escherichia coli E8 = conditions: in agar; Escherichia coli E8; read-out: M.I.C.
Description: as §1

[5] = system: Staphylococcus aureus T150+; conditions: in agar; Staphylococcus aureus T150+; read-out: M.I.C.
Description: as §1

[6] = system: Enterobacter cloacea NCTC 10005; conditions: NCTC10005; in agar; Enterobacter cloacea NCTC 10005; read-out: M.I.C.
Description: as §1

Proteus morganii T361 = conditions: Morganella morganii; in agar; Proteus morganii T361; read-out: M.I.C.
Description: as §1

[7] = system: Enterbacter aerogenes NCTC 10006; conditions: in agar; Enterbacter aerogenes NCTC 10006; read-out: M.I.C.
Description: as §1

CC(=O)N/C=C/SC1=C(C(=O)O)N2C(=O)[C@@H]([C@H](C)OS(=O)(=O)O)[C@H]2C1 [MM 13902, reference compound]
MIC (Proteus morganii I): 0.2 µg/mL (≈ 0.51 µM) | MIC [1]: 25 µg/mL (≈ 63.7 µM) | MIC [2]: 0.8 µg/mL (≈ 2.04 µM) | MIC [3]: 3.1 µg/mL (≈ 7.9 µM) | MIC (Escherichia coli JT414C+): 0.4 µg/mL (≈ 1.02 µM) | MIC [4]: 1.6 µg/mL (≈ 4.08 µM) | MIC (Escherichia coli E8): ≤ 0.1 µg/mL | MIC [5]: 1.6 µg/mL (≈ 4.08 µM) | MIC [6]: 12.5 µg/mL (≈ 31.9 µM) | MIC (Proteus morganii T361): 0.2 µg/mL (≈ 0.51 µM) | MIC [7]: 0.4 µg/mL (≈ 1.02 µM)
